From patent US20250084060A1, “PRMT5 INHIBITORS AND METHODS OF TREATMENT” (HANGZHOU UNOGEN BIOTECH, LTD., priority 2022, published 2025)

molecular target: PRMT5 (Homo sapiens (Human), UniProt O14744); test: PRMT5 Chemiluminescent Assay; type: biochemical; conditions: PRMT5 chemiluminescent assay kit (BPS Bioscience), histone H4 peptide substrate, eight-point dose response
Procedure: The PRMT5 activity is measured by using “PRMT5 Chemiluminescent Assay Kit” from BPS Bioscience, Catalog Number 52002L as per the instructions of the manufacturer. Briefly, the PRMT5 enzyme is incubated with S-adenosylmethionine in a 96-well plate precoated with histone H4 peptide substrate. Next, a highly specific antibody that recognizes methylated R3 residue of Histone H4 is added followed by a horseradkish peroxidase-labeled (HRP-labeled) secondary antibody. Detection is done by the addition of the HRP substrate to produce chemiluminescence that can be measured quantitatively.
Compounds were serially diluted 3-fold and dosed from 10 uM down to 0 uM. Compounds were tested in duplicates to generate an eight-point dose response for the calculation of their IC50s.

Chain of PRMT5 (O14744 2-637): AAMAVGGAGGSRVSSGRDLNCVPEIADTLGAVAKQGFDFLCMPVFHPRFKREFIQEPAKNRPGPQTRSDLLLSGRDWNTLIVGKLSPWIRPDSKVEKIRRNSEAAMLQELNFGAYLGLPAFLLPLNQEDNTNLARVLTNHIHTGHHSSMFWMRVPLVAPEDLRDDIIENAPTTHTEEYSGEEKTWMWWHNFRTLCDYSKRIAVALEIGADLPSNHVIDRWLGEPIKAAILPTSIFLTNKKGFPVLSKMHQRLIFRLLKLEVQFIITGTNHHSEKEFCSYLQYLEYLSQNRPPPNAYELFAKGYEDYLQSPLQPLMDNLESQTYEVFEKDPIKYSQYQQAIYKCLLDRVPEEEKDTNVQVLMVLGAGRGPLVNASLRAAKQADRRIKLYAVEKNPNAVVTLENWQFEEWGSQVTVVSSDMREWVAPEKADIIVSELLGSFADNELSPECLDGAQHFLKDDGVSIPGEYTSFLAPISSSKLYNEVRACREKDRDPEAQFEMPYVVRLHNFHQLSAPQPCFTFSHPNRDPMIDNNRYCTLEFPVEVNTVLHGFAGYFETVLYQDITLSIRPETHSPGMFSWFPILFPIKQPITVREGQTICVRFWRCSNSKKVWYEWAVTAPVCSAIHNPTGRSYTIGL
Chain of PRMT5 (Q9BQA1 2-342 partner): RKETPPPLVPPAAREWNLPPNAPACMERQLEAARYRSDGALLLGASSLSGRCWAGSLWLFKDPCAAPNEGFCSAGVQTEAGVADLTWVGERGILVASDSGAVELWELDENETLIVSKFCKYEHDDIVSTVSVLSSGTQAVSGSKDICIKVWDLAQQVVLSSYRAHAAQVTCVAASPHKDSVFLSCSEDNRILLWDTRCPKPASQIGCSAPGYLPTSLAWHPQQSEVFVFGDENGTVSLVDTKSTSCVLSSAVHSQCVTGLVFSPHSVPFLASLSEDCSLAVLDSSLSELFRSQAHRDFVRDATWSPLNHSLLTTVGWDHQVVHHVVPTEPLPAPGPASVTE

| IC50 | Structure (SMILES) |
| --- | --- |
| 57 nM | CC(C)Cn1c(=O)n(C[C@H](O)CN2CCc3ccccc3C2)c(=O)c2cc(-c3ccc(F)cc3)ccc21 [Compound 76, 3-[(2R)-3-(3,4-dihydro-1H-isoquinolin-2-yl)-2-hydroxy-propyl]-6-(4-fluorophenyl)-1-isobutyl-quinazoline-2,4-dione] |
| 29 nM | Cc1cccc2c1c(=O)n(C[C@H](O)CN1CCc3ccccc3C1)c(=O)n2CC1CC1 [Compound 85, 1-(cyclopropylmethyl)-3-[(2R)-3-(3,4-dihydro-1H-isoquinolin-2-yl)-2-hydroxy-propyl]-5-methyl-quinazoline-2,4-dione] |
| 840 nM | O=c1[nH]c2ccc(O)cc2c(=O)n1C[C@H](O)CN1CCc2ccccc2C1 [Compound 83, 3-[(2R)-3-(3,4-dihydro-1H-isoquinolin-2-yl)-2-hydroxy-propyl]-6-hydroxy-1H-quinazoline-2,4-dione] |
| 1060 nM | O=c1c2ccccc2n(Cc2ccc(Cl)cc2)c(=O)n1C[C@H](O)CN1CCc2ccccc2C1 (stereo in doubt) [Compound 96, 1-[(4-chlorophenyl)methyl]-3-[3-(3,4-dihydro-1H-isoquinolin-2-yl)-2-hydroxy-propyl]quinazoline-2,4-dione] |
| 35 nM | COc1ccc2c(=O)n(C[C@H](O)CN3CCc4ccccc4C3)c(=O)n(CC3CC3)c2c1 [Compound 84, 1-(cyclopropylmethyl)-3-[(2R)-3-(3,4-dihydro-1H-isoquinolin-2-yl)-2-hydroxy-propyl]-7-methoxy-quinazoline-2,4-dione] |
| 9410 nM | COc1ccc(Cn2c(=O)c3ccccc3n(CC(O)CN3CCc4ccccc4C3)c2=O)cc1 (centres unmarked) [Compound 97, 1-[3-(3,4-dihydro-1H-isoquinolin-2-yl)-2-hydroxy-propyl]-3-[(4-methoxyphenyl)methyl]quinazoline-2,4-dione] |
| 216 nM | O=c1[nH]c2ccc(Cl)cc2c(=O)n1C[C@H](O)CN1CCc2ccccc2C1 [Compound 67, 6-chloro-3-[(2R)-3-(3,4-dihydro-1H-isoquinolin-2-yl)-2-hydroxy-propyl]-1H-quinazoline-2,4-dione] |
| 71 nM | CC(C)Cn1c(=O)n(C[C@H](O)CN2CCc3ccccc3C2)c(=O)c2ccccc21 [Compound 102, 3-[(2R)-3-(3,4-dihydro-1H-isoquinolin-2-yl)-2-hydroxy-propyl]-1-isobutyl-quinazoline-2,4-dione] |
| 33 nM | O=c1[nH]c2cc(Cl)ccc2c(=O)n1C[C@H](O)CN1CCc2ccccc2C1 [Compound 68, 7-chloro-3-[(2R)-3-(3,4-dihydro-1H-isoquinolin-2-yl)-2-hydroxy-propyl]-1H-quinazoline-2,4-dione] |
| 876 nM | O=c1[nH]c2ccccc2c(=O)n1CC(O)CN1CCc2ccccc2C1 (centres unmarked) [Compound 61, 3-[3-(3,4-dihydro-1H-isoquinolin-2-yl)-2-hydroxy-propyl]-1H-quinazoline-2,4-dione] |
| 176 nM | O=c1[nH]c2ccc(F)cc2c(=O)n1C[C@H](O)CN1CCc2ccccc2C1 [Compound 66, 3-[(2R)-3-(3,4-dihydro-1H-isoquinolin-2-yl)-2-hydroxy-propyl]-6-fluoro-1H-quinazoline-2,4-dione] |
| 13400 nM | O=c1[nH]c2ccccc2c(=O)n1C[C@@H](O)CN1CCc2ccccc2C1 [Compound 62, 3-[(2S)-3-(3,4-dihydro-1H-isoquinolin-2-yl)-2-hydroxy-propyl]-1H-quinazoline-2,4-dione] |
| 66 nM | COc1ccc2c(=O)n(C[C@H](O)CN3CCc4ccccc4C3)c(=O)[nH]c2c1 [Compound 82, 3-[(2R)-3-(3,4-dihydro-1H-isoquinolin-2-yl)-2-hydroxy-propyl]-7-methoxy-1H-quinazoline-2,4-dione] |
| 698 nM | Cn1c(=O)n(CC(O)CN2CCc3ccccc3C2)c(=O)c2ccccc21 (centres unmarked) [Compound 63, 3-[3-(3,4-dihydro-1H-isoquinolin-2-yl)-2-hydroxy-propyl]-1-methyl-quinazoline-2,4-dione] |
